Assay type in all cases: in vivo
Assay [1] deals with Boll weevil (Anthonomus grandis). Nature of the assay: Activity against Boll weevil (eggs sprayed in microtiterplates). Conditions: 2500 ppm solution in 1:3 DMSO:water, eggs sprayed with 20 μl, 3 to 5 days, untreated controls 0%. The procedure:
1. Activity against Boll weevil (Anthonomus grandis)
The active compounds were formulated as a 2500 ppm solution in 1:3 DMSO:water. 10 to 15 eggs were placed into microtiterplates filled with 2% agar-agar in water and 300 ppm formaline. The eggs were sprayed with 20 μl of the test solution, the plates were sealed with pierced foils and kept at 24-26° C. and 75-85% humidity with a day/night cycle for 3 to 5 days. Mortality was assessed on the basis of the remaining unhatched eggs or larvae on the agar surface and/or quantity and depth of the digging channels caused by the hatched larvae. Tests were replicated 2 times.

Assay [2] relates to Vetch aphid (Megoura viciae). Kind of assay: Activity against Vetch aphid (sprayed bean leaf disks). Conditions: foliar, 144 h, 2500 ppm solution in 1:3 DMSO:water, leaf disks sprayed with 2.5 μl, adult aphids, 6 days, untreated controls 0%. The procedure: 4. Activity against Vetch aphid (Megoura viciae)
The active compounds were formulated as a 2500 ppm solution in 1:3 DMSO:water. Bean leaf disks were placed into microtiterplates filled with 0.8% agar-agar and 2.5 ppm OPUS™. The leaf disks were sprayed with 2.5 μl of the test solution and 5 to 8 adult aphids were placed into the microtiterplates which were then closed and kept at 22-24° C. and 35-45% under fluorescent light for 6 days. Mortality was assessed on the basis of vital, reproduced aphids. Tests were replicated 2 times.

Assay [3] deals with yellowfever mosquito (Aedes aegyptii). Kind of assay: Activity via glass contact (treated glass vials). Conditions: 10 ppm in acetone, 0.5 ml per glass vial, 22° C., untreated controls 0%. From the text:
9. Activity against Argentine ant (Linepithema humile), harvester ant (Pogonomyrmex californicus), acrobat ant (Crematogaster spp.), carpenter ant (Camponotus floridanus), fire ant (Solenopsis invicta), house fly (Musca domestica), stable fly (Stomoxys calcitrans), flesh fly (Sarcophaga sp.), yellowfever mosquito (Aedes aegyptii), house mosquito (Culex quinquefasciatus), malaria mosquito (Anopheles albimanus), German cockroach (Blattella Germanica), cat flea (Ctenocephalides felis), and brown dog tick (Rhipicephalus sanguineus) via glass contact
Glass vials were treated with 0.5 ml of a solution of 10 ppm of the active ingredient in acetone and allowed to dry. Insects or ticks were placed into each vial together with some food and moisture supply.

For `CN(C(=O)CC(C#N)(C#N)CCC(F)(F)F)C(C)(C)C` [I-1, 3,3-dicyano-6,6,6-trifluoro-hexanoic acid tert-butyl-methyl-amide], the mortality at 2500 ppm in assay [1] and in assay [2] was above 75% throughout.
Compound `CN(C(=O)CC(C#N)(C#N)CCC(F)(F)F)C(C)(C)C#N` [I-2, 3,3-dicyano-6,6,6-trifluoro-hexanoic acid (cyano-dimethyl-methyl)-methyl-amide] yielded a mortality at 10 ppm in assay [3] above 75%.

By mortality is commonly meant the percentage killed. Read a low mortality as a weak lethal effect.

The values are drawn from US20080227635A1, “Dicyano Alkanoic Acid Amides for Combating Animal Pests” (BASF Aktiengesellschaft, priority 2005, published 2008).
